From patent US11884710B2, “Peptide compounds and methods of use in wound healing” (priority 2013, dated 2024)

Columns and labels:
[1] = test system: Acinetobacter baumannii ATCC BAA-747; assay: In vitro bactericidal assay, A. baumannii ATCC BAA-747 (FIGS. 10-11); assay type: cell-based; conditions: for reduction of CFU/ml: highest peptide concentration
Description: Each of the test peptides was used at 25, 12.5 6.25 and 3.12 μM. The gentamicin was used at 4 μg/ml. 1×10^6/ml Acinetobacter baumannii ATCC® BAA-747™ (American Type Culture Collection, Manassas, Va.) were incubated with the peptides, negative buffer control (tryptone saline), and positive control gentamicin for 60 minutes at pH 5.5. 50 μl aliquots were plated out on agar plates and incubated overnight. Colony forming units were counted after overnight incubation and CFU/ml calculated.
Each of the test peptides was used at 25, 12.5 6.25 and 3.12 μM. The gentamicin was used at 4 μg/ml. 1×10^6/ml Acinetobacter baumannii ATCC® BAA-747™ (American Type Culture Collection, Manassas, Va.) were incubated with the peptides, negative buffer control (tryptone saline), and positive control gentamicin for 60 minutes at pH 7.2. 50 μl aliquots were plated out on agar plates and incubated overnight. Colony forming units were counted after overnight incubation and CFU/ml calculated.
For FIGS. 10-13, in vitro bactericidal assays were performed using a starting inoculum of 1×10^6 CFU/ml of the bacterial suspension. The CFU remaining at the end of the 60-180 minute incubation was determined, and the data was plotted as log reduction in CFU/ml.
In particular, each of the test peptides (CAP37 peptides 120-146WR, 120-146WH, and 95-122 (SEQ ID NOS:30, 31, and 26, respectively)) was used at 25, 12.5, 6.25, and 3.12 μM. Gentamicin was used at 4 μg/ml. 1×10^6/ml Acinetobacter baumannii ATCC® BAA-747™ or Pseudomonas aeruginosa ATCC® 27853™ (American Type Culture Collection, Manassas, Va.) were incubated with the peptides, negative buffer control (tryptone saline), and positive control gentamicin at pH 5.5 or 7.2. A 60 minute incubation was used for Acinetobacter baumannii ATCC® BAA-747™, while a 180 minute incubation was used for Pseudomonas aeruginosa ATCC® 27853™. 50 μl aliquots were plated out on agar plates and incubated overnight. Colony forming units were counted after overnight incubation and CFU/ml calculated.

[2] = test system: mouse corneal epithelium abrasion; assay: In vivo model of corneal wound healing
Description: (§1) The mouse corneal epithelium was removed using the AlgerBrush II (The Alger Company, Inc., Lago Vista, Tex.), and corneal abrasions were treated at 0 hours and 16 hours with peptide 95-122 (10^−5 M), or were left untreated in 0.9% sodium chloride (saline vehicle) Wound healing was monitored at 0, 16, and 24 hours using fluorescein staining and a camera-equipped inverted microscope. Data are represented as the percentage of wound closure at 16 hours and 24 hours and are expressed as means±SEM. The data are representative of at least 6 mice per group. *P<0.05 by unpaired t-test as compared to vehicle (0.9% sodium chloride) treated controls.
as §1, with “II,” for “II (The Alger Company, Inc., Lago Vista, Tex.),”, “0” for “0 hours”, “120-146WH (10^−8 M or 10^−6” for “95-122 (10^−5”, “vehicle control).” for “vehicle)”, “group. ***P<0.001,” for “group.”
(A) The epithelium of the mouse cornea was removed using the AlgerBrush II, and corneal abrasions were treated at 0 and 16 hours with HB-EGF (250 ng/ml), rCAP37 (250 ng/ml), or vehicle control (normal saline). Wound closure was monitored at 0, 16, 24, and 48 hours using fluorescein staining and a camera-equipped inverted microscope. Data are represented as the percentage of wound closure and are expressed as mean±SEM. The data are representative of at least 6 mice per group. The percentage of wound closure in response to treatment was compared to vehicle-treated controls by unpaired t-test, **P<0.01, *P<0.05. (B) Representative images of mouse corneal wounds are shown at 0, 16, 24, and 48 hours following treatment with vehicle, HB-EGF, and CAP37. Black dotted lines indicate the wound edge.
In vivo model of corneal wound healing: The in vivo model of wound healing was carried out using a disposable biopsy punch (2 mm, Miltex, York, Pa.) to demarcate the mouse cornea and a 0.5 mm burr using the AlgerBrush II (The Alger Company, Inc., Lago Vista, Tex.) to remove the corneal epithelium.
In vivo model of wound healing: Mice were anesthetized using ketamine (100 mg/kg; Bionichepharma, LLC., St. Lake Forrest, Ill.) and xylazine ([…]; Rompun; Bayer Corp., Shawnee Mission, Kans.), and the right cornea was wounded as follows. A disposable biopsy punch (2 mm, Miltex, York, Pa.) was used to demarcate the mouse cornea. The corneal epithelium was carefully removed within the 2 mm demarcated area with a 0.5 mm burr using the AlgerBrush II (The Alger Company, Inc., Lago Vista, Tex.). The corneal abrasions were treated at 0 and 16 hours with HB-EGF (250 ng/ml), rCAP37 (250 ng/ml), or vehicle control (0.9% sodium chloride, pH 5.5, Baxter, Deerfield, Ill.). Corneal abrasions were visualized using sterile fluorescein sodium ophthalmic strips USP (FLUORETS®, Chauvin Laboratory, Aubenas, France) dampened with sterile PBS. […] The areas of the open wound were quantitated using ImageJ software (US National Institutes of Health), and the results were reported as the percentage of wound closure.

Molecule: LDREANLTSSVTILPLPLQNATVEAGTR (listed as Homo sapiens) [Peptide 95-122]
- bactericidal activity, in words ([1]; pH 5.5, 60 minutes, peptides 3.12-25 μM, gentamicin 4 μg/ml): not active
- bactericidal activity, in words ([1]; pH 7.2, 60 minutes, peptides 3.12-25 μM, gentamicin 4 μg/ml): not active
- corneal wound closure, in words ([2]; peptide 10^−5 M at 0 and 16 hours, read at 16 and 24 hours): promotes corneal wound healing in vivo

Molecule: GTRCQVAGWGSWHSGGRLSRFPRFVNV (derivative of peptide of CAP37 protein) [Peptide 120-146WH]
- reduction of CFU/ml ([1]; pH 5.5, 60 minutes): ~4 logs
- reduction of CFU/ml ([1]; pH 7.2, 60 minutes): ~5.5 logs
- bactericidal activity, in words ([1]; peptide at 25 μM): highly active
- amount of corneal wound healing vs vehicle, in words ([2]; peptide 10^−8 M or 10^−6 M at 0 and 16 hours, read at 16 and 24 hours): significantly greater

Molecule: GTRCQVAGWGSWRSGGRLSRFPRFVNV (derivative of peptide of Homo sapiens CAP37 protein) [Peptide 120-146WR]
- reduction of CFU/ml ([1]; pH 5.5, 60 minutes): ~4 logs
- reduction of CFU/ml ([1]; pH 7.2, 60 minutes): ~5.5 logs
- bactericidal activity, in words ([1]; peptide at 12.5 μM): highly active
- bactericidal activity, in words ([1]; peptide at 25 μM): highly active

B1: CAP37: cationic antimicrobial protein of Mr 37 kDa; recombinant CAP37 produced in human embryonic kidney (HEK) 293 cells (protein)
chain: IVGGRKARPRQFPFLASIQNQGRHFCGGALIHARFVMTAASCFQSQNPGVSTVVLGAYDLRRRERQSRQTFSISSMSENGYDPQQNLNDLMLLQLDREANLTSSVTILPLPLQNATVEAGTRCQVAGWGSQRSGGRLSRFPRFVNVTVTPEDQCRPNNVCTGVLTRRGGICNGDGGTPLVCEGLAHGVASFSLGPCGRGPDFFTRVALFRDWIDGVLNNPGP
- reduction of corneal wound size ([2]; CAP37 250 ng/ml at 0 and 16 hours, at 16 hours): 71%
- corneal wound closure ([2]; CAP37 250 ng/ml at 0 and 16 hours, by 24 hours): 83%
